According to ChEMBL document CHEMBL1148643, “Fancy bioisosteres: novel paracyclophane derivatives as super-affinity dopamine D3 receptor antagonists” (J Med Chem, 2006):
Where “and” joins values, the source holds several entries; their conditions need not be identical. Identical values can stand only once.

Assays:
D(4) dopamine receptor = target: T1, D(4) dopamine receptor (Homo sapiens, UniProt P21917); experiment: Displacement of [3H]spiperone from human D4 receptor expressed in CHO cells; assay type: cell-based
T1 sequence (P21917 whole entry): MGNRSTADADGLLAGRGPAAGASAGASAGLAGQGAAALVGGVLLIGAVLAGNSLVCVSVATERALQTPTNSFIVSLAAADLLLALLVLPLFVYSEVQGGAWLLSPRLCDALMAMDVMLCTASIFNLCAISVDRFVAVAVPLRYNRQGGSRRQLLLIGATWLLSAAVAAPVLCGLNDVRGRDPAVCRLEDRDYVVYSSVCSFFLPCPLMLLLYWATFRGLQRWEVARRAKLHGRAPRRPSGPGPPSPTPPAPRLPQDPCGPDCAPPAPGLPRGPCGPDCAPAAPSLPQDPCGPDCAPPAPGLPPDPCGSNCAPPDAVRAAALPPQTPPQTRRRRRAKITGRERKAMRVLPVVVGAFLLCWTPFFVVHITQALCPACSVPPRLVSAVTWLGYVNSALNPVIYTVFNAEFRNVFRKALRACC

D(3) dopamine receptor = D(3) dopamine receptor (Homo sapiens, UniProt P35462); experiment: biochemical
D(3) dopamine receptor, sequence (P35462 whole entry): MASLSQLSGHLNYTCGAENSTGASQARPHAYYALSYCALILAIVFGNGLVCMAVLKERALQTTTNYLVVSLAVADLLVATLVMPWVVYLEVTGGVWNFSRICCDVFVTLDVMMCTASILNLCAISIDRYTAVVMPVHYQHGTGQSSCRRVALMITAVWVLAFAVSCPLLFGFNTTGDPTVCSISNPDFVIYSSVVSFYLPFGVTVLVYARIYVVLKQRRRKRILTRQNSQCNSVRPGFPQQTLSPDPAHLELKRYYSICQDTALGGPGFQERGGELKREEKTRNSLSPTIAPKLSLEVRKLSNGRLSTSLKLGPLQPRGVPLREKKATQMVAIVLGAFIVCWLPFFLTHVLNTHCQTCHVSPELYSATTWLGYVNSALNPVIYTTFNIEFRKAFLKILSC
Description: Displacement of [3H]spiperone from human D3 receptor expressed in CHO cells

D(2) dopamine receptor [1] = target: T2, D(2) dopamine receptor (Homo sapiens, UniProt P14416); experiment: biochemical
T2 sequence (P14416 whole entry): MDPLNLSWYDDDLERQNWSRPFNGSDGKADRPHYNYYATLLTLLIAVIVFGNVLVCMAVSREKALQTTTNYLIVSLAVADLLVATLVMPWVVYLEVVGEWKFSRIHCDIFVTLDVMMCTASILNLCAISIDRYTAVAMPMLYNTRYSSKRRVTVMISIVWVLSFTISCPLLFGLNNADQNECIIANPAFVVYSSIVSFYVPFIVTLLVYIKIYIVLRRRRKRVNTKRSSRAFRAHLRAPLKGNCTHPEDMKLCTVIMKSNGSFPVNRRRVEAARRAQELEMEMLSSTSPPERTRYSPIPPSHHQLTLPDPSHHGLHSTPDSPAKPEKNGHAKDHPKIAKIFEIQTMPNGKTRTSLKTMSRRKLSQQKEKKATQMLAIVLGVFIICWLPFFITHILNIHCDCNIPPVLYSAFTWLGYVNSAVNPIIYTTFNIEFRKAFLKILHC
Description: Displacement of [3H]spiperone from human D2 short receptor expressed in CHO cells

D(2) dopamine receptor [2] = target: T2, D(2) dopamine receptor; experiment: biochemical; remark: listed apart in the source
Description: Displacement of [3H]spiperone from human D2 long receptor expressed in CHO cells

Compound | Ki (D(4) dopamine receptor) | Ki (D(3) dopamine receptor) [nM] | Ki (D(2) dopamine receptor [1]) | Ki (D(2) dopamine receptor [2])
O=C(NCCCCN1CCN(c2cccc(F)c2F)CC1)c1cc2ccc1CCc1ccc(cc1)CC2 | 18 nM | 1.9 | 35 nM | –
COc1ccccc1N1CCN(CCCCNC(=O)c2cc3c4ccc(c3o2)CCc2ccc(cc2)CC4)CC1 | 140 nM | 16 | – | 170 nM

Now from value to molecule:

Ki (D(4) dopamine receptor) | Ki (D(3) dopamine receptor) [nM] | Ki (D(2) dopamine receptor [1]) | Ki (D(2) dopamine receptor [2]) | Compound
33 nM | 0.46 | 28 nM | 42 nM | COc1c(Cl)cccc1N1CCN(CCCCNC(=O)c2cc3ccc2CCc2ccc(cc2)CC3)CC1
5.4 nM and 9.5 nM | – | 13 nM and 5.6 nM | 15 nM and 11 nM | COc1ccccc1N1CCN(CCCCNC(=O)c2cc3ccc2CCc2ccc(cc2)CC3)CC1
120 nM | 3.6 | 140 nM | 220 nM | O=C(NCCCCN1CCN(c2cccc(Cl)c2Cl)CC1)c1cc2ccc1CCc1ccc(cc1)CC2
